Reference: PMC5444695, “CM363, a novel naphthoquinone derivative which acts as multikinase modulator and overcomes imatinib resistance in chronic myelogenous leukemia” (Oncotarget, 2016)
Structures can show the parent of a compound that is named as a salt.

What was measured:
[1] = test system: K562 cells; test: Live-cell imaging (IncuCyte HD) of proliferation and cytotoxicity, K562 cells; format: cell-based, human; settings: Homo sapiens, 96 h; IM sensitive K562, continuous exposure over 4-day period, area under curve; read-out: IC50AUC, cytostatic effect on cell growth
Procedure: Kinetic measurements of cell proliferation and cytotoxicity were carried out by using the IncuCyte^TM HD real time imaging system (Essen BioScience, Hertfordshire, United Kingdom). After seeding in a polylysine-coated 96 well-plates, K562 cells were treated with different concentrations of compound. This IncuCyte™ microscope permits the acquisition of automated phase contrast images. Individual images are processed by an imbedded contrast-based confluence algorithm, which compute monolayer confluence for each image and at each time point. Multiple images are collected per well and averaged to provide a representative statistical measure of confluence.

[2] = test system: pTyr694-Stat5 (pYStat5); test: Immunoblotting of constitutive pYStat5 in K562 cells; format: cell-based; settings: Homo sapiens; K562, 0.05 μM IM, 3 h
Procedure: Then, cells were rinsed with cold PBS-vanadate (1 mM) followed by preparation of whole lysis extract with RIPA (Pierce, Illinois, USA). Equal amounts of each sample were separated by SDS-PAGE and transfered onto nitrocellulose membranes. After being blocked with 1% BSA-1% Blotto (anti-phospho-antibodies) (Santa Cruz Biotechnology, CA, USA) or 5% blotto (anti-total-antibodies) (Santa Cruz Biotechnology, CA, USA) (both diluted in Tris buffered saline with 0.05% Tween 20), membranes were immunoblotted overnight at 4°C with dilution (1:1000) in the same buffer of blocking of primary phosphoprotein or total protein antibodies. […] To control for differences in loading and transfer efficiency across membranes, membranes were incubated with a monoclonal mouse anti-beta actin antibody (Santa Cruz Biotechnology, CA, USA). The phosphoprotein array analysis of K562 cells was carried out by using the Profiler Human Phospho-Kinase Array Kit ARY003B (R&D Systems, Minneapolis, MN, USA) according to the manufacturer`s instructions.

Compound Cc1ccc(NC(=O)c2ccc(CN3CCN(C)CC3)cc2)cc1Nc1nccc(-c2cccnc2)n1 [IM, imatinib mesylate, reference compound] has an IC50 [1] of 200 ± 100 nM and an inhibition at 0.05 µM [2] of 40%.
